Data taken from patent US7541339B2, “Par-2-activating peptide derivative and pharmaceutical composition using the same” (The University of Edinburgh, priority 2002, dated 2009).
Read-outs that look alike come from different tables or passages of the source. Peptide text beside a SMILES is read from it. * marks the point of attachment. 2Furoyl = O=C(c1ccco1)*

Biological target: T1, human PAR-2 (Homo sapiens, UniProt P55085)
T1 construct: Human colorectal adenocarcinoma cell line, HCT-15, expressing endogenous PAR-2 at high levels; endogenous in cells; host or cells: HCT-15 (human colorectal adenocarcinoma)
T1 sequence (P55085 26-397): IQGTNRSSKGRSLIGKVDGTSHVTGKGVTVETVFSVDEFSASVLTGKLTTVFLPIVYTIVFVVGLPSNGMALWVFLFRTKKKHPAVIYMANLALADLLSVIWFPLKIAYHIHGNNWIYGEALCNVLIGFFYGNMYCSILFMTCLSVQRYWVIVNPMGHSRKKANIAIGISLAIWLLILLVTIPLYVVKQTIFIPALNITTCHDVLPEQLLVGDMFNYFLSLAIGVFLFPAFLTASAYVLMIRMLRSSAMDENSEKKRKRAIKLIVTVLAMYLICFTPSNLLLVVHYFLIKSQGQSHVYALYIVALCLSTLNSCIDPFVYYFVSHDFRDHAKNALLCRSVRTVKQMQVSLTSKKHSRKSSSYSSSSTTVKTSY
Assay: PAR-2 activation potency: intracellular calcium mobilization assay (modified Hawthorne's method) in HCT-15 cells
Assay type: cell-based
From the text: PAR-2 activation with the peptide derivative represented by the general formula (I) in accordance with the invention can be tested by various known methods. For example, the Hollenberg's method (Hollenberg, M. D., et al., Can. J. Physiol. Pharmacol., 75, 832-841 (1997)), the Kawabata's method (Kawabata, A., et al., J. Pharmacol. Exp. Ther., 288, 358-370 (1999)) and the Hawthorne's method (Howthorne et al., A High-Throughput Microtiter Plate-Based Calcium Assay for the Study of Protease-Activated Receptor 2 Activation, Analytical Biochemistry 290, 378-379 (2001)) may be used for the test.
The inventors tested the PAR-2 activation potency according to the modified Hawthorne's method. In brief, that is the assay of the calcium mobilization in cells endogenously expressing human PAR-2. In this assay, cells were loaded with Fluorescent Ca2+ indicator dye in presence of Probenecid, an inhibitor of anion exchange transporter, and stimulated with agonists. The agonist-mediated intracellular calcium mobilization was measured using multiwell plate reader.
Human colorectal adenocarcinoma cell line, HCT-15, expressing endogenous PAR-2 at high levels were seeded in 96-well black wall clear bottom plates and subconfluent cells were loaded with Fluorescent Ca2+ indicator dye (Calcium Plus Assay Reagent, Molecular Devices) in serum free medium (RPMI) containing 2.5 mM Probenecid and incubated for 1 hr at 37 C. Then cells were stimulated with various concentrations of test compounds and fluorescent change was determined at wave length of 485 nm for excitation and 525 nm for emission (Cutoff 515 nm) using multiwell scanning fluorometer (FlexStation, Molecular Devices).
SLIGKV-OH (SEQ ID NO: 2) as a known PAR-2 activation peptide was used as a comparative compound, and the results are shown below in Table 1.

EC50 (HCT-15 cells expressing endogenous PAR-2, fluorescent Ca2+ indicator dye, 2.5 mM Probenecid, read-out: Agonist Activity (EC50)) [µM] | Compound | EC50 [µM]
– | CC[C@H](C)[C@H](NC(=O)[C@H](CC(C)C)NC(=O)c1ccco1)C(=O)NCC(=O)N[C@@H](CCCCN)C(=O)N[C@H](C(=O)O)C(C)C [Example 6] (2Furoyl-LIGKV-OH; C-terminus assumed) | 1.68
– | CC[C@H](C)[C@H](NC(=O)[C@H](CC(C)C)NC(=O)c1ccco1)C(=O)NCC(=O)N[C@@H](CCCCN)C(=O)N[C@H](C(N)=O)C(C)C [Example 16] (2Furoyl-LIGKV-NH2; C-terminus assumed) | 0.32
– | CC[C@H](C)[C@H](NC(=O)[C@H](CC(C)C)NC(=O)c1ccco1)C(=O)NCC(=O)N[C@@H](CCCNC(=N)N)C(=O)N[C@@H](CC(C)C)C(=O)O [Example 18] | 1.21
22.8 | H-SLIGKV-OH [SLIGKV-OH, reference compound] | –
